Reference: US20230085307A1, “PYRIDAZINONE COMPOUND AND HERBICIDE” (NISSAN CHEMICAL CORPORATION, priority 2019, published 2023)

Assays:
blackgrass [1] = test: Test Example 4: herbicidal effect by soil treatment (Table 19, symbol J); type: in vivo, blackgrass (Alopecurus myosuroides); conditions: amount of applied herbicide 320 g/ha
Outline: (§1)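 Herbicidal effect was rated 3 weeks after treatment, using the scoring criteria of an earlier test. The compound, formulated as an emulsion and diluted in water to a set herbicide amount, had been sprayed uniformly on soil over freshly sown seeds. Growth took place in a greenhouse at 25° C. to 30° C.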

chickweed [2] = test: Test Example 4: herbicidal effect by soil treatment (Table 19, symbol P); type: in vivo, common chickweed (Stellaria media); conditions: amount of applied herbicide 320 g/ha
Outline: as §1

chickweed [3] = test: Test Example 5: herbicidal effect by foliage application, plastic box (Table 20, symbol P); type: in vivo, common chickweed (Stellaria media); conditions: foliage application, 320 g/ha, evaluated three weeks after application
Outline: (§2)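 Foliar spray test: emulsion formulation diluted in water to a set application rate, sprayed onto 14-day-old plants raised in diluvial soil at 25° C to 30° C under glass. Both herbicidal effect and crop effect rated visually three weeks later.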

wild oat [4] = test: Test Example 4: herbicidal effect by soil treatment (Table 19, symbol I); type: in vivo, wild oat (Avena fatua); conditions: amount of applied herbicide 320 g/ha
Outline: as §1

Italian ryegrass [5] = test: Test Example 4: herbicidal effect by soil treatment (Table 19, symbol K); type: in vivo, Italian ryegrass (Lolium multiflorum); conditions: amount of applied herbicide 320 g/ha
Outline: as §1

rice flat sedge = test: Test Example 3: herbicidal effect by foliage application, Wagner pot (Table 18, symbol E); type: in vivo, rice flat sedge (Cyperus iria); conditions: 320 g/ha
Outline: (§3)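 Plants were sown in alluvial soil held under 0.1–0.5 cm standing water and grown 14 days in a greenhouse at 25–30 °C. An emulsifiable formulation, water-diluted to the set dose, was then sprayed onto the foliage, and effects were scored three weeks later using previously defined criteria.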

false cleavers = test: Test Example 5: herbicidal effect by foliage application, plastic box (Table 20, symbol Q); type: in vivo, false cleavers (Galium spurium); conditions: foliage application, 320 g/ha, evaluated three weeks after application
Outline: as §2

Chinese sprangletop = test: Test Example 3: herbicidal effect by foliage application, Wagner pot (Table 18, symbol D); type: in vivo, chinese sprangletop (Leptochloa chinensis); conditions: 320 g/ha
Outline: as §3

southern crabgrass [6] = test: Test Example 4: herbicidal effect by soil treatment (Table 19, symbol F); type: in vivo, southern crabgrass (Digitaria ciliaris); conditions: amount of applied herbicide 320 g/ha
Outline: as §1

blackgrass [7] = test: Test Example 5: herbicidal effect by foliage application, plastic box (Table 20, symbol J); type: in vivo, blackgrass (Alopecurus myosuroides); conditions: foliage application, 320 g/ha, evaluated three weeks after application
Outline: as §2

southern crabgrass [8] = test: Test Example 5: herbicidal effect by foliage application, plastic box (Table 20, symbol F); type: in vivo, southern crabgrass (Digitaria ciliaris); conditions: foliage application, 320 g/ha, evaluated three weeks after application
Outline: as §2

redroot pigweed [9] = test: Test Example 5: herbicidal effect by foliage application, plastic box (Table 20, symbol N); type: in vivo, redroot pigweed (Amaranthus retroflexus); conditions: foliage application, 320 g/ha, evaluated three weeks after application
Outline: as §2

velvetleaf [10] = test: Test Example 5: herbicidal effect by foliage application, plastic box (Table 20, symbol M); type: in vivo, velvetleaf (Abutilon theophrasti); conditions: foliage application, 320 g/ha, evaluated three weeks after application
Outline: as §2

velvetleaf [11] = test: Test Example 4: herbicidal effect by soil treatment (Table 19, symbol M); type: in vivo, velvetleaf (Abutilon theophrasti); conditions: amount of applied herbicide 320 g/ha
Outline: as §1

lambsquarters [12] = test: Test Example 4: herbicidal effect by soil treatment (Table 19, symbol O); type: in vivo, lambsquarters (Chenopodium album); conditions: amount of applied herbicide 320 g/ha
Outline: as §1

redroot pigweed [13] = test: Test Example 4: herbicidal effect by soil treatment (Table 19, symbol N); type: in vivo, redroot pigweed (Amaranthus retroflexus); conditions: amount of applied herbicide 320 g/ha
Outline: as §1

wild oat [14] = test: Test Example 5: herbicidal effect by foliage application, plastic box (Table 20, symbol I); type: in vivo, wild oat (Avena fatua); conditions: foliage application, 320 g/ha, evaluated three weeks after application
Outline: as §2

barnyard grass [15] = test: Test Example 5: herbicidal effect by foliage application, plastic box (Table 20, symbol H); type: in vivo, barnyard grass (Echinochloa crus-galli); conditions: foliage application, 320 g/ha, evaluated three weeks after application
Outline: as §2

windgrass [16] = test: Test Example 4: herbicidal effect by soil treatment (Table 19, symbol L); type: in vivo, windgrass (Apera spica-venti); conditions: amount of applied herbicide 320 g/ha
Outline: as §1

windgrass [17] = test: Test Example 5: herbicidal effect by foliage application, plastic box (Table 20, symbol L); type: in vivo, windgrass (Apera spica-venti); conditions: foliage application, 320 g/ha, evaluated three weeks after application
Outline: as §2

barnyard grass [18] = test: Test Example 3: herbicidal effect by foliage application, Wagner pot (Table 18, symbol H); type: in vivo, barnyard grass (Echinochloa crus-galli); conditions: 320 g/ha
Outline: as §3

Italian ryegrass [19] = test: Test Example 5: herbicidal effect by foliage application, plastic box (Table 20, symbol K); type: in vivo, Italian ryegrass (Lolium multiflorum); conditions: foliage application, 320 g/ha, evaluated three weeks after application
Outline: as §2

green foxtail [20] = test: Test Example 4: herbicidal effect by soil treatment (Table 19, symbol G); type: in vivo, green foxtail (Setaria viridis); conditions: amount of applied herbicide 320 g/ha
Outline: as §1

persian speedwell [21] = test: Test Example 4: herbicidal effect by soil treatment (Table 19, symbol R); type: in vivo, Persian speedwell (Veronica persica); conditions: amount of applied herbicide 320 g/ha
Outline: as §1

green foxtail [22] = test: Test Example 5: herbicidal effect by foliage application, plastic box (Table 20, symbol G); type: in vivo, green foxtail (Setaria viridis); conditions: foliage application, 320 g/ha, evaluated three weeks after application
Outline: as §2

persian speedwell [23] = test: Test Example 5: herbicidal effect by foliage application, plastic box (Table 20, symbol R); type: in vivo, Persian speedwell (Veronica persica); conditions: foliage application, 320 g/ha, evaluated three weeks after application
Outline: as §2

lambsquarters [24] = test: Test Example 5: herbicidal effect by foliage application, plastic box (Table 20, symbol O); type: in vivo, lambsquarters (Chenopodium album); conditions: foliage application, 320 g/ha, evaluated three weeks after application
Outline: as §2

barnyard grass [25] = test: Test Example 4: herbicidal effect by soil treatment (Table 19, symbol H); type: in vivo, barnyard grass (Echinochloa crus-galli); conditions: amount of applied herbicide 320 g/ha
Outline: as §1

COc1ccc(-c2sc3ccc(Cl)cc3c2-c2c(O)c(C)nn(C)c2=O)cc1 [2-103]
J: blackgrass, herbicidal effect rating (blackgrass [1]): 0 (Herbicidal rate of 5% or less (almost no effect)) | P: chickweed, herbicidal effect rating (chickweed [2]): 4 (Herbicidal rate of 70% or more and less than 90%) | herbicidal effect on P: chickweed (chickweed [3]): 5 (Herbicidal rate of 90% or more (almost completely withered)) | I: wild oat, herbicidal effect rating (wild oat [4]): 0 (Herbicidal rate of 5% or less (almost no effect)) | K: Italian ryegrass, herbicidal effect rating (Italian ryegrass [5]): 0 (Herbicidal rate of 5% or less (almost no effect)) | herbicidal effect on E (rice flat sedge), rating 0-5 (rice flat sedge): 5 (Herbicidal rate of 90% or more (almost completely withered)) | herbicidal effect on Q: false cleavers (false cleavers): 3 (Herbicidal rate of 40% or more and less than 70%) | herbicidal effect on D (Chinese sprangletop), rating 0-5 (Chinese sprangletop): 2 (Herbicidal rate of 20% or more and less than 40%) | F: southern crabgrass, herbicidal effect rating (southern crabgrass [6]): 0 (Herbicidal rate of 5% or less (almost no effect)) | herbicidal effect on J: blackgrass (blackgrass [7]): 1 (Herbicidal rate of 5% or more and less than 20%) | herbicidal effect on F: southern crabgrass (southern crabgrass [8]): 0 (Herbicidal rate of 5% or less (almost no effect)) | herbicidal effect on N: redroot pigweed (redroot pigweed [9]): 3 (Herbicidal rate of 40% or more and less than 70%) | herbicidal effect on M: velvetleaf (velvetleaf [10]): 4 (Herbicidal rate of 70% or more and less than 90%) | M: velvetleaf, herbicidal effect rating (velvetleaf [11]): 3 (Herbicidal rate of 40% or more and less than 70%) | O: lambsquarters, herbicidal effect rating (lambsquarters [12]): 4 (Herbicidal rate of 70% or more and less than 90%) | N: redroot pigweed, herbicidal effect rating (redroot pigweed [13]): 4 (Herbicidal rate of 70% or more and less than 90%) | herbicidal effect on I: wild oat (wild oat [14]): 0 (Herbicidal rate of 5% or less (almost no effect)) | herbicidal effect on H: barnyard grass (barnyard grass [15]): 0 (Herbicidal rate of 5% or less (almost no effect)) | L: windgrass, herbicidal effect rating (windgrass [16]): 0 (Herbicidal rate of 5% or less (almost no effect)) | herbicidal effect on L: windgrass (windgrass [17]): 5 (Herbicidal rate of 90% or more (almost completely withered)) | herbicidal effect on H (barnyard grass), rating 0-5 (barnyard grass [18]): 3 (Herbicidal rate of 40% or more and less than 70%) | herbicidal effect on K: Italian ryegrass (Italian ryegrass [19]): 0 (Herbicidal rate of 5% or less (almost no effect)) | G: green foxtail, herbicidal effect rating (green foxtail [20]): 0 (Herbicidal rate of 5% or less (almost no effect)) | R: persian speedwell, herbicidal effect rating (persian speedwell [21]): 5 (Herbicidal rate of 90% or more (almost completely withered)) | herbicidal effect on G: green foxtail (green foxtail [22]): 0 (Herbicidal rate of 5% or less (almost no effect)) | herbicidal effect on R: persian speedwell (persian speedwell [23]): 5 (Herbicidal rate of 90% or more (almost completely withered)) | herbicidal effect on O: lambsquarters (lambsquarters [24]): 4 (Herbicidal rate of 70% or more and less than 90%) | H: barnyard grass, herbicidal effect rating (barnyard grass [25]): 0 (Herbicidal rate of 5% or less (almost no effect))
